This is an account of results in PMC12261321, “Inhibitors of the Bacterioferritin Ferredoxin Complex Dysregulate Iron Homeostasis and Kill and Biofilm-Embedded Cells” (ACS Infectious Diseases, 2025).

Assay type in all cases: cell-based
The subject of data set [1] is P. aeruginosa PAO1. The data set is described as follows: Compound intracellular accumulation in P. aeruginosa PAO1. To be noted: cells treated with 30 µM compound. The protocol: (§1) Determination of Compound Intracellular Accumulation. These experiments were carri ed out as reported previously,16 with modifications. Starter cultures o f P. aeruginosa PAO1 or A. baumannii 5075 were centrifuged for 10 min at 3148 x g and 4 °C, resuspended in 5 mL of fresh LB, diluted to OD 600 = 0.03 in fresh LB media (250 mL), and then cultured at 35 °C and 220 rpm for 4 h. Th e resultant cul ture was diluted to OD600 = 0.4 in 250 mL LB and centrifuged at 4 °C and 3470 x g for 10 min. The cell pellet was resuspended in 20 mL of PBS and transfer red to a 50 mL conical tube, where it was centrifuged at 4 °C and 3148 x g for 20 min. The cell pellet was resuspended in 15 mL of PBS supplemented with 0.05% (w/v) HPMC and the suspension was divided equally into two new conical tubes. One of th e tubes was treated with 150 µL of DMSO (control), while the second tube was treated with 150 µL of compound in DMSO solution to produce a compound final concentration of 30 µM or 15 µM. The resultant mixtures were incubated at 37 °C and 220 rpm for 15 min, placed on ice for 1 min, and then centrifuged at 3148 x g rpm and 4 °C for 10 min. The cell pellet was resuspended in 7.5 mL of ice -cold PBS and vortexed (10 s, five t imes). 200 µL of the cell suspension was used to plate and enumerate viable cells, and 800 µL of the suspension was lay ered onto 700 µL of chilled silicon oil contained in 1.5 mL Eppendo rf tubes and then centrifuged at 4 °C ( 900 x g) for 10 min, then again at 16,200 x g for 5 min to allow pass ag e of the cell suspension through the silicon oil layer. The aqueous and oil layers were removed, and the cell pellet was washed twice in PBS (800 μ L), each time transferring the cell suspension to a new Eppendorf tube and then centrifuging at 16,200 x g. The cell pellet was lysed in 800 µL methanol by vortexing followed by 10 min incubationat room temperatur e. The lysate suspension was pelleted, the supernatant was transferred to a new Eppendorf tube and then placed into a vacuum concentrator (Eppendorf 5301 Vacufuge) to evaporate the methanol (4 h). The dried […]
(§2) cell lysate was resuspend ed in 600 µL of DMSO and centrifuged at 16,200 x g rpm for 5 min at room temperature.
(§3) The clarified supernatant was titrated with small volumes of 250 µM compound stock, measuring the fluorescen ce after the addition of each aliquot with the aid of a Cary Eclipse Fluorescence Spectrometer (Agilent). The compound concentration was determined utilizing the standard addition method,17 and compound accumulation is reported as nmol compound/1012 CFU/mL. […]
(§4) Eclipse) fluorescen ce sp ectrophotometer. The flu orescen ce intensity of th e treated sample (FI)Tr and that of the untreated control (FI)Un was normalized to the corresponding OD600 and the ratio (FI/OD600)Tr / (F I/ OD600)Un is […]
(§5) The determination for each of the compounds was carri ed out in 5 biological replicates.
(§6) Determination of Siderophores Secreted by A. baumannii . The chromo azurol S (CAS) solution was prepared as previously reported18 with some modifications. The blue dye solution (0.6 g/L CAS ( ACROS Organics), 100 μM FeCl3·6H2O, and 0.73 g/L hexadecyltrimethylammonium bromide (HDTMA, ACROS Organics) was autoclaved and stored in the dark. The MM9-PIPES buffer solution (3 g/L KH2PO4, 5 g/L NaCl, 10 g/L NH4C l, 32.24 g/L piperazine -1,4-bis-2- ethanesulfonic acid (PIPES , Sigma Aldrich), pH 6.75) was sterilized using a 0.22 µm syringe filter (VWR). Prior to every experimen t, blue dye solution (0.5 mL) was mixed with 4.5 mL of MM9-PIPES solution. An overnight culture of A. baumannii 5075 was diluted to OD600 = 0.0001 with modified M63 media (no citric acid) supplemented with 4 μ M Fe and transferred to a 96-well plate, wh ere it was cul tured for 20

Data set [2] has as its system P. aeruginosa PAO1 biofilm. The data set is described as follows: Pellicle biofilm assay, % survival of biofilm cells. To be noted: 24 h. As for the experimental part: We studied the susceptibility of mature biofilms to treatment with analogues of 4-aminoisoindoline-1,3-dione using biofilms cultured at the […] interface (pellicles) using methodology reported previously. To determine the susceptibility of pellicle biofilms to inhibitors of the Pa Bfr–Bfd complex, we cultured 27 h old biofilms in PI media supplemented with 20 μM Fe, as presented in Experimental Methods. The mature biofilms were transferred onto glass coverslips by touching the pellicle with the surface of the coverslips. The coverslip-adhered biofilms were then exposed to treatment solution consisting of AB media supplemented with 20 μM Fe, 1.5% DMSO, 0.025% HPMC, and 4-aminoisoindoline-1,3-dione derivative or commercial antibiotic for 24 h. The biofilms were then harvested and washed, and the cells were dispersed into sterile PBS by vortexing in the presence of zirconia beads prior to plating and enumerating viable cells (CFU/mL) to calculate % cell survival.
Biofilm Assays. Pellicle biofilms formed by EYF P-expressing P. aeruginosa PAO1 wer e carried ou t as repo rted previously,13 with some modifications. Starter cultures were diluted to OD600 = 0.001 in 4 mL PI media supplement ed with 20 µM Fe , trans ferred to petri dishes (35 x 10 mm) and incubated statically for 27 h at 30 °C.
The pellicles were transferred onto circular microscope glass coverslips (12 mm diameter) by gently allowing the surface of a coverslip to contact the pellicle. Th e biofilm- attached coverslip was washed (3 x) by floating it on top of PBS with the biofilm exposed to the liquid and then placed on top of 1.5 mL AB challenge media in a well of a 12-well microplate, with the biofilm exposed to the media at 30 °C for 24 h. AB challenge media is AB minimal media supplemented with 1.5% DMSO, 0.025% HPMC, 20 μ M Fe, and 4-aminoisoindoline-1,3- dione […]
The 4-aminoisoindoline-1,3- dione derivative solutions were prep ared from powder as 10 mM st ock solutions in DMSO and then diluted in AB challenge media to the appropriate concentrations. Following the 24 h challenge, planktonic and loosely attached cells were washed 3 times by floating the coverslip-attached biofilms with the biofilm facing down into a petri d ish (60 x 15 mm) containing 15 mL PBS, and incubating for 5 min. The biofilm was removed from the coversli p and the cells releas ed f rom the extra cel lular matrix by placing th e cov erslip-attach ed biofi lm in a 50 mL conical tub e containing a 2-mL sup ension of zirconia beads (0.1 mm diam eter, BiosSpec Produ cts), 10 mL PBS, 1 mM MgSO4, 20 µg/mL alginate lyase and 40 µg/mL DNAse. The mixture was incubated for three min at room temperature, and then vigorously vortexed for four min. Following sedimentation of the zirconia beads, a 100 μ L aliquot was utilized for serial dilution in PBS and plating on PIA plates for viable cell enumeration (CFU/mL). […]

The subject of a further data set is A. baumannii 5075. The data set is described as follows: Compound intracellular accumulation in A. baumannii 5075. The settings on record: cells treated with 30 µM compound. As for the experimental part:
as §1, §2, §3, §4, §5, §6

In data set [3] the test system is P. aeruginosa PAO1. The data set is described as follows: Compound intracellular accumulation in P. aeruginosa PAO1. To be noted: ‡ treatment with 15 µM compound.
The mark [4] stands for this setting: biofilm challenged with 50 µM compound.
Setting [5] is: biofilm challenged with 20 µM compound.
Setting [6] is: biofilm challenged with 30 µM compound.

On to `O=C1NC(=O)c2c(NCc3c(O)cccc3Cl)cccc21` [KM-5-29], for which the “Intracell. Accum, P. aeruginosa PAO1” value in the data set on P. aeruginosa PAO1 [1] was 351 ± 25 nmol/1012 CFU. The “% Survival Biofilm, P. aeruginosa PAO1” value in data set [2] (setting [4]) is 50 ± 7%. Besides, the “Intracell. Accum, A. baumannii 5075” value with A. baumannii 5075 worked out at 2614 ±134 nmol/1012 CFU.

As to `O=C1NC(=O)c2c(NCc3cccc(Cl)c3O)cccc21` [KM-5-30], the “Intracell. Accum, P. aeruginosa PAO1” value with P. aeruginosa PAO1 [1] turned out to be 42 ± 1 nmol/1012 CFU. For the same compound, the “% Survival Biofilm, P. aeruginosa PAO1” value in data set [2] (setting [4]) was found to be 72 ± 11%. In addition, the “Intracell. Accum, A. baumannii 5075” value with A. baumannii 5075 worked out at 169 ± 62 nmol/1012 CFU.

As to `O=C1NC(=O)c2c(NCc3cc(Cl)ccc3O)ccc(Br)c21` [SB-16-51], in the data set with P. aeruginosa PAO1 [3], the “Intracell. Accum, P. aeruginosa PAO1” value was determined as 425 ± 79 nmol/1012 CFU. Further, the “% Survival Biofilm, P. aeruginosa PAO1” value in data set [2] (setting [5]) is 53 ± 9%.

As for `CC(C)(C)c1ccc(O)c(CNc2cccc3c2C(=O)NC3=O)c1` [SB-16-53], in the data set with P. aeruginosa PAO1 [3], the “Intracell. Accum, P. aeruginosa PAO1” value is 263 ± 40 nmol/1012 CFU. Also, in data set [2] (setting [6]), the “% Survival Biofilm, P. aeruginosa PAO1” value stood at 48 ± 10%.

As to `Cc1cc(Br)cc(CNc2cccc3c2C(=O)NC3=O)c1O` [SB-16-106], the “Intracell. Accum, P. aeruginosa PAO1” value with P. aeruginosa PAO1 [3] came to 415 ± 141 nmol/1012 CFU. Further, the “% Survival Biofilm, P. aeruginosa PAO1” value in data set [2] (setting [6]) is 42 ± 9%.

`O=C1NC(=O)c2c(NCc3cc(Br)c(F)cc3O)cccc21` [SB-16-112]: the “Intracell. Accum, P. aeruginosa PAO1” value in the data set on P. aeruginosa PAO1 [3] was found to be 457 ± 22 nmol/1012 CFU. Moreover, the “% Survival Biofilm, P. aeruginosa PAO1” value in data set [2] (setting [6]) was found to be 15 ± 0.7%.

On to `O=C1NC(=O)c2c(NCc3cc(Br)ccc3O)ccc(Cl)c21` [SB-16-124], for which the “Intracell. Accum, P. aeruginosa PAO1” value in the data set with P. aeruginosa PAO1 [3] worked out at 558 ± 154 nmol/1012 CFU. Moreover, the “% Survival Biofilm, P. aeruginosa PAO1” value in data set [2] (setting [5]) is recorded as “Not active”.

For the compound `O=C1NC(=O)c2c(NCc3cc(Br)c(O)cc3O)cccc21` [SB-16-137], the “Intracell. Accum, P. aeruginosa PAO1” value with P. aeruginosa PAO1 [1] turned out to be 33 ± 1 nmol/1012 CFU. Moreover, in data set [2] (setting [4]), the “% Survival Biofilm, P. aeruginosa PAO1” value is recorded as 78 ± 21%. Also, in the data set on A. baumannii 5075, the “Intracell. Accum, A. baumannii 5075” value is listed as 86 ± 23 nmol/1012 CFU.

With `Cc1cc(Cl)cc(CNc2cccc3c2C(=O)NC3=O)c1O` [SB-16-156], in the data set on P. aeruginosa PAO1 [3], the “Intracell. Accum, P. aeruginosa PAO1” value worked out at 165 ± 18 nmol/1012 CFU. In addition, the “% Survival Biofilm, P. aeruginosa PAO1” value in data set [2] (setting [6]) came to 44 ± 18%.

Take `Cc1cc(CNc2cccc3c2C(=O)NC3=O)c(O)cc1Br` [SB-16-183]: the “Intracell. Accum, P. aeruginosa PAO1” value in the data set on P. aeruginosa PAO1 [3] turned out to be 379 ± 48 nmol/1012 CFU. The “% Survival Biofilm, P. aeruginosa PAO1” value in data set [2] (setting [5]) came out at 43 ± 3%.
